The text below walks through data of patent US20040121304A1, “Method for screening for progesterone receptor isoform-specific ligands and for tissue-selective progesterone receptor ligands” (priority 2004, published 2004).

Assay [1] has as its target T1, hPR-B (progesterone receptor isoform B) (Homo sapiens, UniProt P06401).
T1 construct: expressed in transfected cells; host or cells: SK-N-MC (human neuroblastoma) cells, stably transfected with pRSVhPR-neo (built from pRC/RSV and hPR-1) and pMTV-LUC
T1 sequence (P06401 1-933): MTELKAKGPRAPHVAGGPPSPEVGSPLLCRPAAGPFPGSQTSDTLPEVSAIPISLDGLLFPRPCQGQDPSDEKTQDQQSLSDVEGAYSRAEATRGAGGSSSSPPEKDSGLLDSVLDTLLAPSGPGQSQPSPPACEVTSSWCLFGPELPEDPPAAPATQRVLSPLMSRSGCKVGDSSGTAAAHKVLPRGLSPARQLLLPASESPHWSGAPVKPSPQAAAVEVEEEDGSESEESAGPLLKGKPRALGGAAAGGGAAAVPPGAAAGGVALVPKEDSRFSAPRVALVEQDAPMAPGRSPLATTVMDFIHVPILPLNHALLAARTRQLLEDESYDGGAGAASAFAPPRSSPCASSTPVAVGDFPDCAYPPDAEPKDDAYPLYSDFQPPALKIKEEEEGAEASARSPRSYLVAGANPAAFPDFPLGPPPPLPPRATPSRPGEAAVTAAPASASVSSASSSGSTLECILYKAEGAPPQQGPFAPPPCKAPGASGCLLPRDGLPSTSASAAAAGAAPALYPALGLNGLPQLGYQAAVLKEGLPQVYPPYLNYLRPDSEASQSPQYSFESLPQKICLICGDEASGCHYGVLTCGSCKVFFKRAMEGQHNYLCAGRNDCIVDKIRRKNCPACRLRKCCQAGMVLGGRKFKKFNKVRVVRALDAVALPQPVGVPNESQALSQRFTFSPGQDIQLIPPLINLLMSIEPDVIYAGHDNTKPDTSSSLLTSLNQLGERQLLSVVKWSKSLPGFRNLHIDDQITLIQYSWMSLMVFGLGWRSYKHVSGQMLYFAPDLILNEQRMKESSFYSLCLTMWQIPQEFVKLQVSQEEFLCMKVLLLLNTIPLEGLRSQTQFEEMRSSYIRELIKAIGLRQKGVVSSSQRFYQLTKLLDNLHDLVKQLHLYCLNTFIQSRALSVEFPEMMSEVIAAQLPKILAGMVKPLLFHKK
The assay is described as follows: Transactivation assay, SK-N-MC cells stably transfected with hPR-B and MTV-LUC reporter. The settings on record: for Emax / antagonism efficacy (PR-B): SK-N-MC hPR-B/MTV-LUC cells, 24 h incubation; for Emax: LUC activity relative to R5020 10^-7 mol/l = 100%, 1% ethanol = 0%, read-out: Agonism efficacy (PR-B); for antagonism efficacy (PR-B): inhibition of LUC induction by 10^-10 mol/l R5020; for Difference of agonism efficacies (PR-B - PR-A): indicating PR-B selectivity. Format: cell-based. As to the method:
(§1) The method for screening for isoform-specific PR ligands according to the present invention is carried out with first and second SK-N-MC cells stably transfected with a plasmid expressing the hPR-A (first cells) or the hPR-B (second cells) and the LUC reporter gene linked to the hormonally responsive MTV promoter. A detailed description of how the cell lines according to the invention and used in this Example may be obtained is given in Example 5.
(§2) The cells are cultured in Minimum Essential Medium with Earl's Salts (S-MEM, without L-glutamine; Gibco BRL, no. 21090-022), supplemented with 10% fetal calf serum (FCS), penicillin 100U/streptomycin 100 μg/ml (Biochrom, no. A2213), L-glutamine 4 mmol/l (Gibco BRL, no. 25030-024), sodium pyruvate 1 mmol/l (Biochrom, no. L0473) and 1× non-essential amino acids (Biochrom, no. K0293) at a temperature of 37° C. and in an atmosphere of 5% carbon dioxide.
(§3) For the transactivation assay, the cells are seeded onto 96-well dishes (2×10^4 cells/dish) and cultured in a medium as described above, with the exception that the FCS is replaced by a 3% charcoal stripped FCS. 48 hours later, cells are contacted with prediluted test compounds. For determination of agonistic activity, cells are cultured in the presence of increasing concentrations (10^−6 to 10^−11 mol/l) of test compounds. As a positive control for reporter gene induction cells are treated with 10^−6 to 10^−11 mol/l R5020 (promegestone). As a negative control for reporter gene induction, cells are cultured in 1% ethanol. For determination of antagonistic activity, cells are treated with 10^−10 mol/l R5020 and additionally with increasing concentrations (10^−6 to 10^−11 mol/l) of test compounds. As a positive control for inhibition of reporter gene transcription, cells are cultured in increasing concentrations (10^−7 to 10^−12 mol/l) of the antiprogestin mifepristone. As a negative control for inhibition of reporter gene transcription, cells are cultured in 1% ethanol.
(§4) After incubation with test compounds for 24 hours, the medium is removed and cells are lysed with 20 μl of lysis buffer (Luciferase Assay System E 153A; Promega) and under agitation of the plate for 10 min. After addition of 30 μl of luciferase reagent (Luciferase Assay System E 151A+152A; Promega) within 30 seconds per plate, the activity of the luciferase reporter gene product is determined in the cell lysates by means of a Microlite ML 3000 microtiter plate luminometer (Dynatech) in cycle mode.
(§5) Evaluation of the response gives the efficacy [%] for both agonism and antagonism, and evaluation of the EC50 (for agonism) and IC50 (for antagonism) values gives the potency [nM]. Calculation of these values is conducted as follows:
(§6) Calculation of Agonistic Activity:
(§7) The LUC activity [%] for the measured data points is calculated as follows: [formula]
(§8) and CO=0% stimulation (ethanol, 1%).
(§9) Thus, the efficacy [%] is determined according to: [formula]
(§10) The potency [nM], i.e. the EC50, is determined graphically.
(§11) Calculation of Antagonistic Activity:
(§12) wherein CI=0% inhibition (R5020, 10^−10 mol/l) (corresponds to 100% stimulation)
(§13) and CO=100% inhibition (EtOH, 1%) (corresponds to 0% stimulation)
(§14) The potency [nM], i.e. the IC50, is determined graphically.

Assay [2] has as its target T2, hPR-A (progesterone receptor isoform A) (Homo sapiens, UniProt P06401).
T2 construct: expressed in transfected cells; host or cells: SK-N-MC (human neuroblastoma) cells, stably transfected with phPR-2 (PR-A plasmid) plus pRSV-neo and pMTV-LUC
T2 sequence (P06401 1-769 isoform P06401-2): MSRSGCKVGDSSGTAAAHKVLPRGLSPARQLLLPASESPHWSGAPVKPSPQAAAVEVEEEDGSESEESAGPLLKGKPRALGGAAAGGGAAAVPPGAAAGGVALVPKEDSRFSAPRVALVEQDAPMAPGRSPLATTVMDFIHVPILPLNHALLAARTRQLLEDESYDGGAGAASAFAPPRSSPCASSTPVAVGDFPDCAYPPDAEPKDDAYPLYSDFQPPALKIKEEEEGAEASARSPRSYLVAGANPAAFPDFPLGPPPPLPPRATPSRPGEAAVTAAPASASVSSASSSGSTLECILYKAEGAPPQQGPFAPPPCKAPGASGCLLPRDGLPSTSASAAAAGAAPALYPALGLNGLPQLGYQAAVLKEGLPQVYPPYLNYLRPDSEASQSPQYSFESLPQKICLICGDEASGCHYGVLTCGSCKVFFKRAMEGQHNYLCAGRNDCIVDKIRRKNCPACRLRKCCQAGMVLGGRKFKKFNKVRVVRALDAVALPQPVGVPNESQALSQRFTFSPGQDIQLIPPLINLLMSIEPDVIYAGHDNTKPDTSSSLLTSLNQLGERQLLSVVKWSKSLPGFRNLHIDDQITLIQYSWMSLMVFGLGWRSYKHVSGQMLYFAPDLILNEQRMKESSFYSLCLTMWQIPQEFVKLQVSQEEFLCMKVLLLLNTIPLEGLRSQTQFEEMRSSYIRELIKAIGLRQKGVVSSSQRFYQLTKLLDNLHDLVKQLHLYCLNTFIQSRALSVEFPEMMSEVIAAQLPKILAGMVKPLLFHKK
As to the kind of experiment: Transactivation assay, SK-N-MC cells stably transfected with hPR-A and MTV-LUC reporter. The format is cell-based. The settings on record: for Emax / antagonism efficacy (PR-A): SK-N-MC hPR-A/MTV-LUC cells, 24 h incubation; for Emax: LUC activity relative to R5020 10^-7 mol/l = 100%, 1% ethanol = 0%, read-out: Agonism efficacy (PR-A); for antagonism efficacy (PR-A): inhibition of LUC induction by 10^-10 mol/l R5020. The procedure: as §1, §2, §3, §4, §5, §6, §7, §8, §9, §10, §11, §12, §13, §14

As for `CC(=O)O[C@]1(C(C)=O)CCC2C3C[C@H](C)C4=CC(=O)CC[C@@]45CC=C[C@@H](C[C@@]21C)C35` (stereo partly drawn) [17-(acetyloxy)-9,11-dihydro-6-methyl-(6α,11α)-6H′benzo[10,9,11]-19-norpregna-4,9(11)-diene-3,20-dione], in assay [1], the Emax was 90%, the “antagonism efficacy (PR-B)” value was “none” and the “Difference of agonism efficacies (PR-B - PR-A)” value (“Difference … (PR-B - PR-A)” below) worked out at 40%. Moreover, in assay [2], the Emax came to 50% and the “antagonism efficacy (PR-A)” value was “none”.

Regarding `C#C[C@]1(O)C=CC2C3CCC4=CC(=O)CC[C@@]45CC=C[C@@H](C[C@@]21C)C35` (stereo partly drawn) [9,11-dihydro-17-hydroxy-(11α,17α)-6′H-benzo[10,9,11]-19-norpregna-4,9(11), 15-trien-20-yn-3-one], in assay [1], the Emax came to 114% and the “antagonism efficacy (PR-B)” value was “none”. Also, in assay [2], the Emax was found to be 131% and the “antagonism efficacy (PR-A)” value was “none”. The “Difference of agonism efficacies (PR-A - PR-B)” value in assay [2] (indicating PR-A selectivity) was 17%.

On to `CC(=O)O[C@]1(C(C)=O)CC[C@H]2[C@@H]3C=C(C)C4=CC(=O)CC[C@]4(C)[C@H]3CC[C@@]21C` [17-acetoxy-6-methyl-4,6-pregnadiene-3,20-dione], for which, in assay [1], the Emax was found to be 81%, the “antagonism efficacy (PR-B)” value is “none” and the “Difference … (PR-B - PR-A)” value came out at 46%. For the same compound, in assay [2], the Emax worked out at 35% and the “antagonism efficacy (PR-A)” value was “none”.

As to `C#C[C@]1(O)CCC2C3CCC4=CC(=O)CC[C@@]45CC=C[C@@H](C[C@@]21CC)C35` (stereo partly drawn) [13-ethyl-9,11-dihydro-17-hydroxy-(11α,17α)-6′H-benzo[10,9,11]-18,19-dinorpregna-4,9(11)-dien-20-yn-3-one], in assay [1], the Emax came to 108% and the “antagonism efficacy (PR-B)” value is given as “none”. Besides, in assay [2], the Emax stood at 129% and the “antagonism efficacy (PR-A)” value is on record as “none”. The “Difference of agonism efficacies (PR-A - PR-B)” value in assay [2] (indicating PR-A selectivity) turned out to be 21%.

For `CC(=O)O[C@]1(C(C)=O)CCC2C3C=C(Cl)C4=CC(=O)CC[C@@]45CC[C@@H](C[C@@]21C)C35` (stereo partly drawn) [17-(acetyloxy)-6-chloro-9,11-dihydro-(11α)-cyclopenta[10,9,11]-19-norpregna-4,6,9(11)-triene-3,20-dione], in assay [1], the Emax amounted to 50%, the “antagonism efficacy (PR-B)” value is recorded as 30% and the “Difference … (PR-B - PR-A)” value was 21%. In assay [2], the Emax was 29% and the “antagonism efficacy (PR-A)” value came out at 45%. Besides, the “Difference of antagonism efficacies (PR-A - PR-B)” value in assay [2] (indicating PR-A selectivity) amounted to 15%.

For `CC(CC(O)(CNc1ccc2c(c1)COC2=O)C(F)(F)F)c1ccccc1` (stereo not shown) [5-{[2-hydroxy-4-phenyl-2-(trifluoromethyl)pentyl]amino}-1(3H)-isobenzofiuranone], in assay [1], the Emax was found to be 56.8%, the “antagonism efficacy (PR-B)” value is “none” and the “Difference … (PR-B - PR-A)” value turned out to be 17%. Moreover, in assay [2], the Emax worked out at 39.9% and the “antagonism efficacy (PR-A)” value is recorded as “none”.

Turning to `C#C[C@]1(O)C=CC2C3CCC4=CC(=O)CC[C@@]45CCC=C(C[C@@]21CC)C35` (stereo partly drawn) [13-ethyl-5α,9-dihydro-17-hydroxy-(17α)-6′H-benzo[10,9,11]-18,19-dinorpregna-4,9(11),15-trien-20-yn-3-one], in assay [1], the Emax was determined as 108%, the “antagonism efficacy (PR-B)” value was “none” and the “Difference … (PR-B - PR-A)” value is given as 23%. In addition, in assay [2], the Emax amounted to 85% and the “antagonism efficacy (PR-A)” value is “none”.

Regarding `O=C1OCc2cc(NC(=O)C(O)(CC3(c4cccc(Br)c4)CC3)C(F)(F)F)ccc21` (stereo not drawn) [1-(3-bromophenyl)-N-(1,3-dihydro-1-oxo-5-isobenzofuranyl)-α-hydroxy-α-(trifluoromethyl)-cyclopropanepropanamide], in assay [1], the Emax was determined as 106%, the “antagonism efficacy (PR-B)” value is on record as “none” and the “Difference … (PR-B - PR-A)” value was 25%. In assay [2], the Emax was 81% and the “antagonism efficacy (PR-A)” value is reported as “none”.

As to `C=C[C@]1(O)CCC2C3CCC4=CC(=O)CC[C@@]45CC=C[C@@H](C[C@@]21CC)C35` (stereo partly drawn) [13-ethyl-9,11-dihydro-17-hydroxy-(11α,17α)-6′H-benzo[10,9,11]-18,19-dinorpregna-4,9(11),20-trien-3-one], in assay [1], the Emax turned out to be 108% and the “antagonism efficacy (PR-B)” value was “none”. For the same compound, in assay [2], the Emax is 132% and the “antagonism efficacy (PR-A)” value is listed as “none”. For the same compound, in assay [2] (indicating PR-A selectivity), the “Difference of agonism efficacies (PR-A - PR-B)” value amounted to 24%.
